Legend:
Type in all cases: biochemical
GuaB (IMP dehydrogenase) = GuaB (IMP dehydrogenase) (Bacillus subtilis, UniProt P21879); assay: kinetic assay with purified GuaB
HprT = HprT (Bacillus subtilis, UniProt P37472); assay: kinetic assay with purified HprT
Gmk (guanylate kinase) = Gmk (guanylate kinase) (Bacillus subtilis, UniProt O34328); assay: PK/LDH coupled enzymatic assay with purified Gmk
Chain of Gmk (guanylate kinase) (O34328 whole entry): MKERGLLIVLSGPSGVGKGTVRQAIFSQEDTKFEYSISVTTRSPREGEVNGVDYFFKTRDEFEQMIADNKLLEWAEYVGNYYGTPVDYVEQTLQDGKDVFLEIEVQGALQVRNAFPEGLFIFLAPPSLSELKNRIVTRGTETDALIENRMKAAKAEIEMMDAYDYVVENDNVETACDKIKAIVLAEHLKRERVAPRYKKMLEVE

Chain of HprT (P37472 whole entry): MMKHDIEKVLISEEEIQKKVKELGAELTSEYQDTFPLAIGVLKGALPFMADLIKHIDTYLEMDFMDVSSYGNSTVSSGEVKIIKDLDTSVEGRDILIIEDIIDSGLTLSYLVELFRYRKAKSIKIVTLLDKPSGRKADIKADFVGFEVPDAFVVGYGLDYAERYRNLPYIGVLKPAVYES
Chain of GuaB (IMP dehydrogenase) (P21879 whole entry): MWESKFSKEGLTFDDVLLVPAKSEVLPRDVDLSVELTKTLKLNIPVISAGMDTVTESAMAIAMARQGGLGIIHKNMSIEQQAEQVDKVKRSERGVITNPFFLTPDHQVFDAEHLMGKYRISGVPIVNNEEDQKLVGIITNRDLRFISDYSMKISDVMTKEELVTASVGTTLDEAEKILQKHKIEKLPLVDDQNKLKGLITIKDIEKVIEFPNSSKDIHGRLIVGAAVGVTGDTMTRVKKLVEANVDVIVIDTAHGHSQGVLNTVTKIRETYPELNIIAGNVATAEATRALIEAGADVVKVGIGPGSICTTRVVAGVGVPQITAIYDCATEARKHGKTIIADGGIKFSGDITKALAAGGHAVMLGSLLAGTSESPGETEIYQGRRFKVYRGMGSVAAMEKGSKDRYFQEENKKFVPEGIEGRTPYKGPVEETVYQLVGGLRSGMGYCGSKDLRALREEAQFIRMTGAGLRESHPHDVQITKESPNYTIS

Row | SMILES | IC50 (GuaB (IMP dehydrogenase)) [µM] | IC50 (HprT) [µM] | IC50 (Gmk (guanylate kinase)) [µM]
1 | Nc1nc2c(ncn2[C@@H]2O[C@H](COP(=O)(O)OP(=O)(O)O)[C@@H](OP(=O)(O)OP(=O)(O)O)[C@H]2O)c(=O)[nH]1 [ppGpp] | ~500 | ~11 | ~20
2 | Nc1nc2c(ncn2[C@@H]2O[C@H](COP(=O)(O)OP(=O)(O)OP(=O)(O)O)[C@@H](OP(=O)(O)OP(=O)(O)O)[C@H]2O)c(=O)[nH]1 [pppGpp] | ~300 | ~11 | ~20
